Data: patent publication EP0374886A2, “Antiretroviral furan ketones” (MERRELL DOW PHARMACEUTICALS INC., priority 1988, dated 1990)
In brackets after ≈: the same amount, converted by molar mass.

How the values were obtained:
[1] = tested on: Moloney murine leukemia virus (MoLV); test: in vitro XC plaque assay (inhibition of virus plaque growth in mouse SC-1 cells / rat XC cells); assay type: cell-based; conditions: SC1, concentration giving a 50% inhibition of virus plaque growth, compounds added 2 hours prior to virus, read-out: IC₅₀
Method: The ability of the furan ketone derivatives of this invention to act as anti-retroviral agents can be demonstrated by their ability to inhibit the growth and replication of murine leukemia virus, an oncogenic retrovirus, as determined by an in vitro XC plaque assay. This assay was performed according to the method of Rowe et al. (Virology, 1970, 42, 1136-39) as previously described by L. Hsu, et al. (J. Virological Methods, 1980, 1, 167-77) and T. L. Bowlin and M. R. Proffitt (J. Interferon Res., 1983, 3(1), 19-31). Mouse SC-1 cells (fibroblast) (10⁵) were seeded into each well of 6-well cluster plates (Costar #3506) in 4 ml Minimum Essential Medium (MEM) with 10% Fetal Calf Serum (FCS). Following an 18 hour incubation period (37°C), Moloney murine leukemia virus (MoLV) was applied at a predetermined titer to give optimal (i.e. countable) numbers of virus plaques. Compounds were added 2 hours prior to addition of the virus. Three days later the culture medium was removed, the SC-1 cell monolayers were exposed to UV irradiation (1800 ergs), and rat XC cells (10⁶) were seeded into each well in 4 ml MEM. Following an additional 3 day incubation (37°C), these cells were fixed with ethyl alcohol (95%) and stained with 0.3% crystal violet. Plaques were then counted under low magnification. The antiviral activities of various compounds of this invention are tabulated in Table I in terms of the IC₅₀, i,e, the concentration giving a 50% inhibition of virus plaque growth.

HIV1GB8 strain of HIV-1 = test: anti-HIV activity in T-cells (JM cells): syncytial cell count and p24 antigen after 4 days; assay type: cell-based; conditions: for SYNCYTIAL COUNT: untreated 29; for P24 ANTIGEN: untreated 801; for inhibition at 15 µg/mL / inhibition at 30 µg/mL: Human immunodeficiency virus 1, T-cell, 96 h, inhibition of syncytial count
Method: To further confirm the antiretroviral activity of these compounds, methyl 5-tetradecyloxy-2-furyl ketone and methyl 5-tetradecylthiomethyl-2-furyl ketone were evaluated for activity against HIV. Following overnight pretreatment of T-cells (JM cells) with the HIV1GB8 strain of HIV-1, the test compounds were added to the cell cultures at concentrations of 15 and 30 µg/ml. After 4 days the number of synctial cells in the cell culture and the amount of p24 antigen, also a measure of viral replication, were determined.

SMILES	IC50 [1] [µg/mL]	other results
CCCCCCCCCCCCC(C)COc1ccc(C(C)=O)o1 (centres unmarked) [Methyl 5-(2-methyltetradecyloxy)-2-furyl ketone]	1 to 5 (≈ 2.97 to 14.9 µM)	
CC(=O)c1ccc(OCCC(C)CCCC(C)CCCC(C)C)o1 (centres unmarked) [Methyl 5-(3,7,11-trimethyldodecyloxy)-2-furyl ketone]	< 1	
CCCCCCCCCCOc1ccc(C(C)=O)o1 [Methyl 5-decyloxy-2-furyl ketone]	1 to 10 (≈ 3.75 to 37.5 µM)	
CCCCCCCCCCCCc1ccc(C(C)=O)o1 [Methyl 5-dodecyl-2-furyl ketone]	5 to 10 (≈ 18 to 35.9 µM)	
CCCCCCCCCCCCCCCCCCOc1ccc(C(C)=O)o1 [Methyl 5-octadecyloxy-2-furyl ketone]	> 10	
CCCCCCCCCCCCCCOc1ccc(C(C)=O)o1 [Methyl 5-tetradecyloxy-2-furyl ketone]	4 (≈ 12.4 µM)	SYNCYTIAL COUNT (HIV1GB8 strain of HIV-1; 15 µg/ml): 19; P24 ANTIGEN (HIV1GB8 strain of HIV-1; 15 µg/ml): 450 pg X 10³/ml; SYNCYTIAL COUNT (HIV1GB8 strain of HIV-1; 30 µg/ml): 0; inhibition at 15 µg/mL (HIV1GB8 strain of HIV-1; 15 µg/ml): 34%; inhibition at 30 µg/mL (HIV1GB8 strain of HIV-1; 30 µg/ml): 100%
CCCCCCCCCCCCCCSc1ccc(C(C)=O)o1 [Methyl 5-tetradecylthio-2-furyl ketone]	1 to 10 (≈ 2.95 to 29.5 µM)	
CCCCCCCCCCCCCCSCc1ccc(C(C)=O)o1 [Methyl 5-tetradecylthiomethyl-2-furyl ketone]	1 (≈ 2.84 µM)	SYNCYTIAL COUNT (HIV1GB8 strain of HIV-1; 15 µg/ml): 3; P24 ANTIGEN (HIV1GB8 strain of HIV-1; 15 µg/ml): 152 pg X 10³/ml; SYNCYTIAL COUNT (HIV1GB8 strain of HIV-1; 30 µg/ml): 0; inhibition at 15 µg/mL (HIV1GB8 strain of HIV-1; 15 µg/ml): 90%; inhibition at 30 µg/mL (HIV1GB8 strain of HIV-1; 30 µg/ml): 100%

Further lines, with some results ahead:

IC50 [1] [µg/mL]	SMILES	other results
5 to 10 (≈ 12.7 to 25.5 µM)	CCCCCCCCCCCCCCOc1ccc(C(=O)CCCCCC)o1 [Hexyl 5-tetradecyloxy-2-furyl ketone]	
< 1	CCCCCCCC/C=C\CCCCCCCCOc1ccc(C(C)=O)o1 [Methyl 5-(cis-9-octadecenyl)oxy-2-furyl ketone]	
1 to 10 (≈ 3.4 to 34 µM)	CCCCCCCCCCCCOc1ccc(C(C)=O)o1 [Methyl 5-dodecyloxy-2-furyl ketone]	
1 to 10 (≈ 2.85 to 28.5 µM)	CCCCCCCCCCCCCCCCOc1ccc(C(C)=O)o1 [Methyl 5-hexadecyloxy-2-furyl ketone]	
5 to 10 (≈ 14.9 to 29.7 µM)	CCCCCCCCCCCCCCCOc1ccc(C(C)=O)o1 [Methyl 5-pentadecyloxy-2-furyl ketone]	
1 to 10 (≈ 3.26 to 32.6 µM)	CCCCCCCCCCCCCCc1ccc(C(C)=O)o1 [Methyl 5-tetradecyl-2-furyl ketone]	
1 to 10 (≈ 2.97 to 29.7 µM)	CCCCCCCCCCCCCCOCc1ccc(C(C)=O)o1 [Methyl 5-tetradecyloxymethyl-2-furyl ketone]	
5 to 10 (≈ 13.7 to 27.4 µM)	CCCCCCCCCCCCCCOc1ccc(C(=O)C(C)(C)C)o1 [t-Butyl 5-tetradecyloxy-2-furyl ketone]	
